{"source": "ChEMBL document CHEMBL2380311", "about": "(Bioorg Med Chem Lett, 2013)", "key": {"Cholinesterase": {"biological_target": "Cholinesterase (Equus caballus, UniProt P81908)", "sequence (P81908 whole entry)": "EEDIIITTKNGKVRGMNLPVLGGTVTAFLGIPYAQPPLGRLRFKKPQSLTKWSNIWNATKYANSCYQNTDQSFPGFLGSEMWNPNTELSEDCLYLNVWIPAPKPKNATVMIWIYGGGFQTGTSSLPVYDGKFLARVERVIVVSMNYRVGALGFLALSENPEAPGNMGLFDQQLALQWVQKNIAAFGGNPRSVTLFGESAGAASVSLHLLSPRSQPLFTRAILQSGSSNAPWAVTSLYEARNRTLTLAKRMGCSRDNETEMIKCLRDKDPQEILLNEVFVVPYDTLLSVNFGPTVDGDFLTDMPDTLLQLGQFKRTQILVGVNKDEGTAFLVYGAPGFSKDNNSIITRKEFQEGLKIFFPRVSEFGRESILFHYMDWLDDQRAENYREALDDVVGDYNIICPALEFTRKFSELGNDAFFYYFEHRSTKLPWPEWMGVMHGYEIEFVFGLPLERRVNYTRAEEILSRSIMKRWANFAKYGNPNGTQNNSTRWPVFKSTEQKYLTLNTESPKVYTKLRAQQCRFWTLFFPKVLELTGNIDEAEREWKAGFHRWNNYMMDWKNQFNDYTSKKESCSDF", "description": "Inhibition of equine serum BChE using butyrylthiocholine iodide as substrate after 5 mins by Ellman's method"}, "Acetylcholinesterase": {"biological_target": "Acetylcholinesterase (Electrophorus electricus, UniProt O42275)", "sequence (O42275 whole entry)": "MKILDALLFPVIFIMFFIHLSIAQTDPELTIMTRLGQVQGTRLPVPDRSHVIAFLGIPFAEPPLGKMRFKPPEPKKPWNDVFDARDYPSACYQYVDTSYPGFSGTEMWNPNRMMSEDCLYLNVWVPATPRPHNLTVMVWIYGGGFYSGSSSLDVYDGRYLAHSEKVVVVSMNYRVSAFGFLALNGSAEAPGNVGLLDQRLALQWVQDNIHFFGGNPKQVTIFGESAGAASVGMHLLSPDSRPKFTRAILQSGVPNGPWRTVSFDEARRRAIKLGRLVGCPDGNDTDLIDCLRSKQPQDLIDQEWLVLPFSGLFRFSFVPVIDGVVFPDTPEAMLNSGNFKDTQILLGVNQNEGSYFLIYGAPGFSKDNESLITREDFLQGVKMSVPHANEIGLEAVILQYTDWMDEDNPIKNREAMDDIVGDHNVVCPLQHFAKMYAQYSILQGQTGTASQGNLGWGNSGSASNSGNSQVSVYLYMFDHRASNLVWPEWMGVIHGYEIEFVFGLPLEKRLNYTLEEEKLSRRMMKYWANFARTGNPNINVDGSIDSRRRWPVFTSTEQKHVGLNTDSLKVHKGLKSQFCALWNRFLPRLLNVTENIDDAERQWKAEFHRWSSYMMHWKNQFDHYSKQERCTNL", "description": "Inhibition of electric eel AChE using acetylthiocholine iodide as substrate after 5 mins by Ellman's method"}, "[1]": {"biological_target": "Cholinesterase (Equus caballus) (UniProt P81908)", "sequence (P81908 whole entry)": "as the sequence (P81908 whole entry) above", "assay": "Mixed-type inhibition of equine serum BChE using butyrylthiocholine iodide as substrate by Lineweaver-Burk reciprocal plot analysis"}}, "note": "Calls of active or inactive are those of the source. The calls are words filed in the database; no cut-off is given here."}
{"smiles": "CC(C(=O)NCCCCNc1c2c(nc3ccccc13)CCCC2)c1ccc(-c2ccccc2)c(F)c1", "note": "(stereo unspecified)", "values": [{"measurement": "IC50", "setting": "Cholinesterase", "result": 11, "unit": "nM"}, {"measurement": "IC50", "setting": "Acetylcholinesterase", "result": 193, "unit": "nM"}]}
{"smiles": "CC(C(=O)NCCCCNc1c2c(nc3ccccc13)CCCC2)c1ccc(-c2ccc(OCCCCO[N+](=O)[O-])cc2)c(F)c1", "note": "(stereo unspecified)", "values": [{"measurement": "IC50", "setting": "Cholinesterase", "result": 7.7, "unit": "nM"}, {"measurement": "IC50", "setting": "Acetylcholinesterase", "result": 641, "unit": "nM"}]}
{"smiles": "CC(C(=O)NCCNc1c2c(nc3ccccc13)CCCC2)c1ccc(-c2ccc(OCCCCO[N+](=O)[O-])cc2)c(F)c1", "note": "(stereo unspecified)", "values": [{"measurement": "IC50", "setting": "Cholinesterase", "result": 10.1, "unit": "nM"}, {"measurement": "IC50", "setting": "Acetylcholinesterase", "result": 1350, "unit": "nM"}]}
{"smiles": "CC(C(=O)NCCCNc1c2c(nc3ccccc13)CCCC2)c1ccc(-c2ccc(OCCCO[N+](=O)[O-])cc2)c(F)c1", "note": "(stereo unspecified)", "values": [{"measurement": "IC50", "setting": "Cholinesterase", "result": 8.6, "unit": "nM"}, {"measurement": "IC50", "setting": "Acetylcholinesterase", "result": 189, "unit": "nM"}]}
{"smiles": "CC(C(=O)NCCCNc1c2c(nc3ccccc13)CCCC2)c1ccc(-c2ccc(OCCO[N+](=O)[O-])cc2)c(F)c1", "note": "(stereo unspecified)", "values": [{"measurement": "IC50", "setting": "Cholinesterase", "result": 8.1, "unit": "nM"}, {"measurement": "IC50", "setting": "Acetylcholinesterase", "result": 112, "unit": "nM"}]}
{"smiles": "CC(C(=O)NCCCCNc1c2c(nc3ccccc13)CCCC2)c1ccc(-c2ccc(OCCO[N+](=O)[O-])cc2)c(F)c1", "note": "(stereo unspecified)", "values": [{"measurement": "IC50", "setting": "Cholinesterase", "result": 13.9, "unit": "nM"}, {"measurement": "IC50", "setting": "Acetylcholinesterase", "result": 227, "unit": "nM"}]}
{"smiles": "CC(C(=O)NCCCCNc1c2c(nc3ccccc13)CCCC2)c1ccc(-c2ccc(OCCCO[N+](=O)[O-])cc2)c(F)c1", "note": "(stereo unspecified)", "values": [{"measurement": "IC50", "setting": "Cholinesterase", "result": 10.6, "unit": "nM"}, {"measurement": "IC50", "setting": "Acetylcholinesterase", "result": 261, "unit": "nM"}]}
{"smiles": "CC(C(=O)NCCNc1c2c(nc3ccccc13)CCCC2)c1ccc(-c2ccc(OCCCCCCO[N+](=O)[O-])cc2)c(F)c1", "note": "(stereo unspecified)", "values": [{"measurement": "inhibition", "setting": "[1]", "result": "Active"}, {"measurement": "IC50", "setting": "Cholinesterase", "result": 7.6, "unit": "nM"}, {"measurement": "IC50", "setting": "Acetylcholinesterase", "result": 4310, "unit": "nM"}]}
{"smiles": "CC(C(=O)NCCNc1c2c(nc3ccccc13)CCCC2)c1ccc(-c2ccc(OCCO[N+](=O)[O-])cc2)c(F)c1", "note": "(stereo unspecified)", "values": [{"measurement": "IC50", "setting": "Cholinesterase", "result": 9.9, "unit": "nM"}, {"measurement": "IC50", "setting": "Acetylcholinesterase", "result": 183, "unit": "nM"}]}
{"smiles": "CC(C(=O)NCCNc1c2c(nc3ccccc13)CCCC2)c1ccc(-c2ccccc2)c(F)c1", "note": "(stereo unspecified)", "values": [{"measurement": "IC50", "setting": "Cholinesterase", "result": 58.7, "unit": "nM"}, {"measurement": "IC50", "setting": "Acetylcholinesterase", "result": 715, "unit": "nM"}]}
{"smiles": "CC(C(=O)NCCCCNc1c2c(nc3ccccc13)CCCC2)c1ccc(-c2ccc(OCCCCCCO[N+](=O)[O-])cc2)c(F)c1", "note": "(stereo unspecified)", "values": [{"measurement": "IC50", "setting": "Cholinesterase", "result": 3.9, "unit": "nM"}, {"measurement": "IC50", "setting": "Acetylcholinesterase", "result": 1460, "unit": "nM"}]}
{"smiles": "CC(C(=O)NCCCNc1c2c(nc3ccccc13)CCCC2)c1ccc(-c2ccc(OCCCCO[N+](=O)[O-])cc2)c(F)c1", "note": "(stereo unspecified)", "values": [{"measurement": "IC50", "setting": "Cholinesterase", "result": 7.9, "unit": "nM"}, {"measurement": "IC50", "setting": "Acetylcholinesterase", "result": 357, "unit": "nM"}]}
{"smiles": "CC(C(=O)NCCCNc1c2c(nc3ccccc13)CCCC2)c1ccc(-c2ccc(OCCCCCCO[N+](=O)[O-])cc2)c(F)c1", "note": "(stereo unspecified)", "values": [{"measurement": "IC50", "setting": "Cholinesterase", "result": 8.1, "unit": "nM"}, {"measurement": "IC50", "setting": "Acetylcholinesterase", "result": 1010, "unit": "nM"}]}
{"smiles": "CC(C(=O)NCCNc1c2c(nc3ccccc13)CCCC2)c1ccc(-c2ccc(OCCCO[N+](=O)[O-])cc2)c(F)c1", "note": "(stereo unspecified)", "values": [{"measurement": "IC50", "setting": "Cholinesterase", "result": 10, "unit": "nM"}, {"measurement": "IC50", "setting": "Acetylcholinesterase", "result": 341, "unit": "nM"}]}
{"smiles": "CC(C(=O)NCCCNc1c2c(nc3ccccc13)CCCC2)c1ccc(-c2ccccc2)c(F)c1", "note": "(stereo unspecified)", "values": [{"measurement": "IC50", "setting": "Cholinesterase", "result": 13.9, "unit": "nM"}, {"measurement": "IC50", "setting": "Acetylcholinesterase", "result": 345, "unit": "nM"}]}
